Assay results reported in patent publication US6521635B1, “Inhibition of MXR transport by acridine derivatives” (priority 2000, dated 2003).

Tests used:
patients = details: cited from earlier work
[1] = test system: S1 parental cells (low endogenous level of Pgp); test: Rhodamine efflux assay (flow cytometry); type: cell-based, human
Protocol: The rhodamine and calcein efflux assays were performed as previously described with minor modifications (Lee et al. (1994) Mol. Pharmacol. 46: 627-638; Versantvoort et al. (1995) Int. J. Cancer 63: 855-862.) Suspensions of logarithmic phase cells were obtained from tissue culture flasks by trypsinization and transferred into round-bottom 96-well plates. […] After the efflux period, the cells were washed with DPBS and placed on ice. A FACSort flow cytometer (Becton Dickinson, San Jose, Calif.) with a 488-nm argon laser was used to analyze the samples. Rhodamine 123 or calcein fluorescence was collected after a 530 nm bandpass filter. A minimum of 10,000 events was collected per sample and the samples were gated on forward scatter versus side scatter to exclude clumps and debris; dead cells were excluded based on propidium iodide staining.
To provide confirmation, rhodamine efflux assays were performed. […] After an accumulation and efflux period, rhodamine fluorescence was quantitated by flow cytometric analysis. The results are depicted in FIG. 2. […] PSC 833, a cyclosporin-D analog, was used as a positive control for Pgp antagonism.

Pgp = Pgp (Homo sapiens, UniProt P08183); details: reported in literature; cited from earlier work
[2] = test system: MRP-overexpressing MCF-7/VP cells; test: In vitro cytotoxicity assay (sulforhodamine B staining); type: cell-based, human
Protocol: Reversal of resistance was determined in cytotoxicity assays using the sulforhodamine staining (Skehan et al. (1990) J. Natl. Cancer Inst. 82: 1107-1112). Briefly, cells were harvested and seeded at a density of 2000 cells/well for the colon cancer lines and 4000 cells/well for the breast cancer cell lines in flat-bottom 96-well plates. The cells were incubated for 24 h at 37° C. to allow attachment prior to addition of the drugs. Mitoxantrone and topotecan at various concentrations were added to the cells with or without the reversal agent and were incubated at 37° C. in a fully humidified atmosphere of 5% CO2 for 96 h. Each concentration was tested in triplicate and the controls were done in replicates of eight.
After incubation, the cells were fixed in TCA and stained with sulforhodamine B (SRB) solution (0.4% wt/vol in 1% acetic acid) (Sigma Chemical, St Louis, Mo.). Optical densities were read on a Bio-Rad plate reader (Hercules, Calif.) at an absorbance of 540 nm.

Chain of Pgp (P08183 whole entry): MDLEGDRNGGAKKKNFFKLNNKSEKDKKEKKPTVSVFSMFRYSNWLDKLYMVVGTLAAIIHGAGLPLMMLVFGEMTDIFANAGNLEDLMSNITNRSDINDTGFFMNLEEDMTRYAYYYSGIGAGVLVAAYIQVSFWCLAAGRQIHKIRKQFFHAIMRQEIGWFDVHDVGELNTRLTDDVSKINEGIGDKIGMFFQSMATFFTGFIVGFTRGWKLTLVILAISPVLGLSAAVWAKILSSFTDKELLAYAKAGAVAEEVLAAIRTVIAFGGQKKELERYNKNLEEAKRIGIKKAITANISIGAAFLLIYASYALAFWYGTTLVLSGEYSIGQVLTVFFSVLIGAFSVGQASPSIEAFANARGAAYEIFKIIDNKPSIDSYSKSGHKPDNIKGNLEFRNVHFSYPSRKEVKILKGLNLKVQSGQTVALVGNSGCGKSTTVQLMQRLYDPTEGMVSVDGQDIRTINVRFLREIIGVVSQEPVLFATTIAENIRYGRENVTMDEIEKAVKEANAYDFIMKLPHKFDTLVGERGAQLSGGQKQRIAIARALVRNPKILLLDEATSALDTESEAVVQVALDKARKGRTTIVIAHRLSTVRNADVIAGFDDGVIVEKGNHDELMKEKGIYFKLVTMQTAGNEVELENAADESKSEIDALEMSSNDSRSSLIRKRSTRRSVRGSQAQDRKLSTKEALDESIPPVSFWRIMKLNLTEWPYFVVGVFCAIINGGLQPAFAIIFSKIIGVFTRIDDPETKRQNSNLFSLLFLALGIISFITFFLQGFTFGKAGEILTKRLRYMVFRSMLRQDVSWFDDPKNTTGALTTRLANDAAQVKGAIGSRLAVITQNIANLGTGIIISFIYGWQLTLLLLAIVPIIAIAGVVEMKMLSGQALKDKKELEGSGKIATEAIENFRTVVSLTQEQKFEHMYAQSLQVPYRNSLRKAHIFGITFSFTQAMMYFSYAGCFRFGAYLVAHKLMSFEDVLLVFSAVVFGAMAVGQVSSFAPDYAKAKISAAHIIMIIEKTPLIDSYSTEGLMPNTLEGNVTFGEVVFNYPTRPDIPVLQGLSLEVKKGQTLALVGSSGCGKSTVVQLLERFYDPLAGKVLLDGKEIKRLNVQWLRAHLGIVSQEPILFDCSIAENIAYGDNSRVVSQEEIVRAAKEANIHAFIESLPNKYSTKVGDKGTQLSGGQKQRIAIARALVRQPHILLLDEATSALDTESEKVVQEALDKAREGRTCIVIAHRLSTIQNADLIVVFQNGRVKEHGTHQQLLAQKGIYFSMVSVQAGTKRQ

COc1cc2c(cc1OC)CN(CCc1ccc(NC(=O)c3cccc4c(=O)c5cccc(OC)c5[nH]c34)cc1)CC2 [GF120918]
toxicity in phase I clinical trials (patients): little toxicity
effect on rhodamine accumulation and efflux [1]: small increase in rhodamine accumulation and a decrease in efflux
concentrations inhibiting Pgp-mediated efflux (Pgp): nanomolar concentrations
IC50 ([2]; Homo sapiens, MCF7-VP, read-out: IC50 for GF120918 alone, MCF-7/VP cells): 7.5 µM
reversing MRP-mediated resistance ([2]; cytotoxicity reversal studies with etoposide, MRP-overexpressing MCF-7 VP-16 cells (data not shown)): ineffective
